Experimental data from PMC6143625, “A high throughput screen for next-generation leads targeting malaria parasite transmission” (Nature Communications, 2018).
Like-named read-outs stand apart in the source and are kept apart here.

Legend:
[1] = test system: P. falciparum 3D7 asexual blood stages; assay: Whole-cell time extended asexual growth assay (pLDH); type: cell-based; conditions: Plasmodium falciparum; for inhibition at 2 µM: primary screen, read-out: %Inh Asex stages @2uM
Experimental: Asexual activity was assayed via Plasmodium lactate dehydrogenase activity (pLDH), a surrogate of asexual parasite growth. […] 2 µM artesunate and DMSO were used as the positive and negative controls, respectively. […] After plate mixing, NBT reduction was measured by absorbance at 650 nm using Envision (Perkin Elmer).

[2] = test system: P. berghei strain CTRPpGFP early mosquito stage (ookinete) development; assay: P. berghei ookinete development assay (Pb ODA); type: cell-based, Plasmodium berghei; conditions: for IC50: Plasmodium berghei, 24h incubation
Experimental: All mouse procedures were performed in accordance with the UK Animals (Scientific Procedures) Act (PPL 70/7185) and approved by the Imperial College Animal Welfare and Ethical Review Body (AWERB). The ability of test compounds to inhibit P. berghei early mosquito stage development was tested in the Ookinete Development Assay[37] with a few exceptions. Anaesthetised 6- to 8-week-old female Tucks Ordinary (TO) mice infected with P. berghei strain CTRPpGFP[38] were rapidly exsanguinated by cardiac puncture and 500 µl of blood diluted in 25 ml of ookinete medium supplemented with 20% foetal bovine serum. Immediately the blood/medium mixture was dispensed by multichannel pipette into 384 well plates containing pre-plated test compounds. 10 µM cycloheximide and DMSO were used as the positive and negative controls, respectively. Plates were stored in the dark in a humidified incubator at 18 °C for 24 h. Ookinete production was imaged by fluorescence microscopy of GFP expression under the ookinete-specific CTRP promoter using a Nikon Ti-E widefield microscope and ×10 objective. Ookinete production was quantified using ICY and percentage inhibition calculated as above with reference to positive and negative controls.

[3] = test system: P. berghei-ANKA-GFP-Luc-SMCON sporozoites in HepG2-A16-CD81EGFP cells; assay: P. berghei liver stage assay (luciferase sporozoite HepG2 invasion); type: cell-based; conditions: Plasmodium berghei
Experimental: Compound inhibition of P. berghei sporozoite liver infection was assessed in a high-throughput luciferase assay. 1536-well plates (789173-F, Greiner Bio-One) were pre-seeded with 5 µl HepG2-A16-CD81^EGFP cells grown in DMEM (11965–092, Invitrogen) containing 10% FBS (35–011-CV, Corning) and 1× Pen Strep Glutamine (10378–016, Invitrogen). Then, 50 nl of compound in DMSO was dispensed in 12-point serial dilution dose-response format (50 µM to 2.82 × 10^−4 µM), and incubated overnight.A. stephensi mosquitoes infected with P. berghei-ANKA-GFP-Luc-SMCON (Pb-Luc)[41] sporozoites bearing the antifolate-resistance-conferring Toxoplasma gondii dihydrofolate reductase-thymidylate synthase selectable marker, pyR2. After dissection, ~1000 sporozoites in 5 µl screening media (DMEM, 11965–092, Invitrogen; 5% FBS, 35–011-CV, Corning; 5x Pen Strep Glutamine, 10378–016, Invitrogen) were added per well and incubated for 48 h (37 °C, 5% CO2). Bioluminescence was measured using an EnVision microplate reader (Perkin Elmer), following the addition of 2 µl per well of Bright-Glo™ (Promega). Compound toxicity against HepG2 cells was determined in parallel by measuring cellular ATP levels reported by luciferase activity. Methods were similar to the P. berghei liver stage assay, except for the addition of CellTiter-Glo® (Promega) as a detection reagent. DMSO (0.5%) was used as a negative control in both assays, with Atovaquone (5 µM) and Puromycin (10 µM) acting as positive controls in the P. berghei and toxicity assays, respectively.

[4] = target: T1, recombinant luciferase (Photinus pyralis) (Photinus pyralis, UniProt P08659); assay: Recombinant luciferase inhibition assay; type: biochemical
T1 construct: purchased Promega E1701
T1 sequence (P08659 whole entry): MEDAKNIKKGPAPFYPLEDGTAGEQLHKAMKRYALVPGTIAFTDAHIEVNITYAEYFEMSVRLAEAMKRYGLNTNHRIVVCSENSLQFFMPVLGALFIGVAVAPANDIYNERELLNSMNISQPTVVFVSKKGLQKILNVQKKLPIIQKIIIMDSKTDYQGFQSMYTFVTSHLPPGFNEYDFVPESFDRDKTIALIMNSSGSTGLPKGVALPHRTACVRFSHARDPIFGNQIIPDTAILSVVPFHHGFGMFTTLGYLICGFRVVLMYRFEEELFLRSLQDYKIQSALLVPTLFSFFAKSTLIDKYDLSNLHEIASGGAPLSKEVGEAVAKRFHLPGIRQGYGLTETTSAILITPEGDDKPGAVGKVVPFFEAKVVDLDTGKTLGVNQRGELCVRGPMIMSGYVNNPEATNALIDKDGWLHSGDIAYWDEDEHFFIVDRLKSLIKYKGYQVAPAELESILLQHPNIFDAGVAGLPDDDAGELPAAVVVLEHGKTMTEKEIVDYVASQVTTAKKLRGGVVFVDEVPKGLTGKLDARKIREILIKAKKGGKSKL
Experimental: A counter-screen to the P. berghei liver stage assay was run against recombinant luciferase (Photinus pyralis) to measure the intrinsic bioluminescence inhibition from select compounds. Briefly, compounds were plated in 12-point serial dose response (50–2.82 × 10^−4 µM) in 1536-well opaque-bottom plates (789173-F, Greiner Bio-One). A 20 pM QuantiLum® Recombinant Luciferase (E1701, Promega) containing solution was made in screening media (DMEM, 11965–092, Invitrogen; 5% FBS, 35–011-CV, Corning; 5x Pen Strep Glutamine, 10378–016, Invitrogen), and 8 µl were added to each well. After 1 h incubation at room temperature, 2 µl of Bright-Glo™ (E2610, Promega) were dispensed per well, and bioluminescence was immediately measured using the EnVision microplate reader (PerkinElmer). DMSO (0.5%) and Luciferase Inhibitor-2 (9.8 µM) (119114, MilliporeSigma) served as negative and positive controls, respectively.

[5] = profiling / reconfirmation, read-out: Pf asexual IC50
[6] = 72h incubation, read-out: Pf Asexual IC50
[7] = dose response retest, 72 h, read-out: IC50 (µM) Asex stages
[8] = 48h incubation, read-out: Pb Liver invasion assay IC50
[9] = 1h incubation, read-out: Recombinant luciferase assay IC50

Structure (SMILES) | IC50 [1, 5] | IC50 [1, 6] | IC50 ([1]; compound resynthesised at GSK, read-out: IC50 against asexuals) | IC50 [1, 7] | inhibition at 2 µM ([1]; 72 h) | IC50 [2] | IC50 [3, 8] | IC50 [4, 9] | activity in P. berghei ookinete development assay ([2]; profiling) | IC50 [4] | IC50 ([3]; read-out: Pb liver IC50) | IC50 ([4]; read-out: Recombinant luciferase IC50)
O=C(CCl)Nc1ccc(Br)cc1 [BPCA, N-(4-bromophenyl)-2-chloroacetamide] | 0.8 µM | – | – | – | – | – | – | – | – | – | – | –
CC(=O)c1c(C)nn(CC(=O)Nc2ccc(Br)cc2)c1C [DDD01027599] | 0.8 µM | 0.64 µM | > 50 µM | 1.02 µM | 80.5% | > 12.5 µM | 7.48 µM | > 50 µM | – | – | – | –
O=S(=O)(NCC1(O)CCOc2ccccc21)c1ccccc1F (stereo not drawn) [DDD01028073] | – | > 20 µM | – | – | – | 0.3 µM | > 50 µM | > 50 µM | – | – | – | –
Cc1ccc(S(=O)(=O)NCC2(O)CCOc3ccccc32)s1 (stereo not drawn) [DDD01028074] | – | > 20 µM | – | – | – | 0.29 µM | > 50 µM | > 50 µM | – | – | – | –
O=S(=O)(NCC1(O)CCOc2ccccc21)c1ccc(Cl)s1 (stereo not drawn) [DDD01028075] | – | > 20 µM | – | – | – | 0.34 µM | > 50 µM | > 50 µM | – | – | – | –
O=S(=O)(NCC1(O)CCOc2ccccc21)c1ccccc1Br (stereo not drawn) [DDD01028076] | – | > 20 µM | – | – | – | 0.22 µM | > 50 µM | > 50 µM | – | – | – | –
COc1cccc(-n2ccc3nc(N4CCCC4)ncc3c2=O)c1 [DDD01034957] | – | 0.17 µM | – | 0.72 µM | 58.1% | > 12.5 µM | – | 6.7 µM | – | – | – | –
O=S(=O)(NCC1(O)CCOc2ccccc21)c1cccs1 (stereo not drawn) [DDD01035879] | – | > 20 µM | – | – | – | 0.29 µM | > 50 µM | > 50 µM | – | – | – | –
O=S(=O)(NCC1(O)CCOc2ccccc21)c1ccc(Br)s1 (stereo not drawn) [DDD01035881] | – | 17.5 µM | – | – | – | 0.11 µM | – | > 50 µM | – | – | – | –
Cc1cccc(NC(=O)c2cccc(OCc3nnnn3C)c2)n1 [DDD01038630] | – | 1.13 µM | – | 0.963 µM | 84.5% | > 12.5 µM | > 50 µM | > 50 µM | – | – | – | –
CC(c1ccco1)N(C(=O)CNc1ccc(C#N)cc1)C1CC1 (stereo not drawn) [DDD01062645] | – | > 20 µM | – | – | – | > 12.5 µM | – | > 50 µM | inactive | – | – | –
Cc1ccc(CN(c2cc(C)nc3nc(C(F)(F)F)nn23)C2CC2)cc1 [DDD01063654] | – | 0.33 µM | – | 0.324 µM | 73.2% | > 12.5 µM | 15.3 µM | > 50 µM | – | – | – | –
Cc1cc(C)c(CNCC(O)c2ccc(F)c(F)c2)c(C)c1.Cl (stereo not drawn) [DDD01065539] | – | 0.17 µM | – | 0.396 µM | 91.4% | > 12.5 µM | 17.2 µM | – | – | > 50 µM | – | –
CC(NCC1CCN(CCO)CC1)c1ccc(OC(F)(F)F)cc1 (stereo not drawn) [DDD01073716] | – | 10.8 µM | – | – | – | > 25 µM | 15.5 µM | > 50 µM | – | – | – | –
CN(Cc1cccc(F)c1)C(=O)CS(=O)(=O)Cc1c(Cl)cccc1Cl [DDD01077188] | – | 0.63 µM | – | 0.764 µM | 74.2% | > 12.5 µM | 23.1 µM | > 50 µM | – | – | – | –
CN1CCC(NCC(O)c2cccc(OCc3ccccc3)c2)CC1 (stereo not drawn) [DDD01079164] | – | 7.53 µM | – | – | – | > 25 µM | 16.5 µM | > 50 µM | – | – | – | –
CNc1cc(C)nc(NC2CCCN(C3Cc4ccccc4C3)C2)n1 (stereo not drawn) [DDD01243506] | 0.66 µM | – | – | 1.07 µM | 97.1% | > 12.5 µM | – | > 50 µM | – | – | 0.52 µM | ≥ 50 µM
OC1(CN2CCC(Oc3cccc(C(F)(F)F)c3)CC2)CCNC1 (stereo not drawn) [DDD01245291] | – | 6.66 µM | – | – | – | > 25 µM | 6.06 µM | > 50 µM | – | – | – | –
CC(c1cccs1)N(C)Cc1cnc(-c2ccccn2)nc1 (stereo not drawn) [DDD01246628] | – | 4.75 µM | – | – | – | > 25 µM | 13.3 µM | 4.28 µM | – | – | – | –
CC(C)CN1CCn2nc(CNc3ncnc4[nH]ccc34)cc2C1 [DDD01249504] | – | > 20 µM | – | – | – | > 25 µM | > 50 µM | > 50 µM | – | – | – | –
CCCn1nccc1C(=O)N1CCN(C2CCc3ccccc3C2)CC1 (stereo not drawn) [DDD01251134] | – | 1.01 µM | – | 0.969 µM | 58.4% | > 12.5 µM | 20.7 µM | > 50 µM | – | – | – | –
Cc1nn(C)c(Oc2ccc(Cl)cc2)c1CN1CCC(CN)C1 (stereo not drawn) [DDD01254274] | – | > 20 µM | – | – | – | > 25 µM | > 50 µM | > 50 µM | – | – | – | –
CCc1ccc(C2c3nc[nH]c3CCN2Cc2nccn2CC)nc1 (stereo not drawn) [DDD01254473] | – | > 20 µM | – | – | – | > 12.5 µM | > 50 µM | > 50 µM | – | – | – | –
CCOc1ccc2ccccc2c1CNCC1CCNCC1.Cl.Cl [DDD01255740] | – | 3.56 µM | – | – | – | > 12.5 µM | 13.2 µM | > 50 µM | – | – | – | –
Cc1ccc(-c2cc(C(=O)NCCC3=CCCCC3)[nH]n2)o1 [DDD01255968] | – | > 20 µM | – | – | – | > 12.5 µM | 17.6 µM | 17.9 µM | – | – | – | –
CCn1ncc(Br)c1CN(C)S(=O)(=O)c1ccc(C)cc1 [DDD01259521] | – | 1.06 µM | – | 1.02 µM | 56.1% | > 12.5 µM | 8.64 µM | > 50 µM | – | – | – | –
c1cnnc(N2CCCC2CNc2ncnc3sccc23)c1 (stereo not drawn) [DDD01299704] | – | 0.44 µM | – | 0.532 µM | 66.7% | > 12.5 µM | 16.4 µM | > 50 µM | – | – | – | –
